The target in experiment [1] is T1, PfCK2α (protein kinase CK2 catalytic α subunit), PfCK2αD179S (Plasmodium falciparum, UniProt Q8IIR9, D179S).
T1 construct: gene PF3D7_1108400; Ile12 to Ser335 (catalytic domain), hexa-histidine tag at C-terminus
T1 sequence (Q8IIR9 12-335 D179S): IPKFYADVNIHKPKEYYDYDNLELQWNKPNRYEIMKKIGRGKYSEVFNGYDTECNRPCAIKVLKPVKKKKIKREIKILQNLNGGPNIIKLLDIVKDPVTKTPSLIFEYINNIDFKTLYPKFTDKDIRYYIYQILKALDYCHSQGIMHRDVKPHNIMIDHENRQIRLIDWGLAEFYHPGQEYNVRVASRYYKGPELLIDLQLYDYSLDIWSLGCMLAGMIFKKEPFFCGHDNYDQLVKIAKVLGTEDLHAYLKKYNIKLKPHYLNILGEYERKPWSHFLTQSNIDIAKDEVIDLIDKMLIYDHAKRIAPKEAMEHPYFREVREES
The experiment is described as follows: co-crystal structure at […] Å without Mg2+; ITC (KD […] without Mg2+, […] with […] Mg2+). Format: binding.

In experiment [2] the target is T2, PfCK2 (PfCK2α, protein kinase CK2 catalytic subunit) (Plasmodium falciparum, UniProt Q8IIR9).
T2 construct: gene PF3D7_1108400; Ile12 to Ser335 of PfCK2α
The experiment is described as follows: radiometric peptide kinase assay with γ[…]-ATP ([…] ATP). Format: biochemical.

Molecules are shown by their SMILES.

The term Kd denotes a measure of binding affinity in units of concentration. A low value points to higher affinity. With `Nc1ncnc2c1ncn2[C@@H]1O[C@H](COP(=O)(O)OP(=O)(O)OP(=O)(O)O)[C@@H](O)[C@H]1O` [ATP], binding in experiment [1] was put at a Kd of 22.3 µM. As usually defined, the IC50 is the concentration that gives 50% inhibition. Turning to `O=C(O)c1ccc2c(c1)nc(Nc1cccc(Cl)c1)c1ccncc12` [CX4945], in experiment [2], the midpoint of inhibition, the IC50, lay at 0.0132 µM.

These data come from article PMC5943518, “The protein kinase CK2 catalytic domain from Plasmodium falciparum: crystal structure, tyrosine kinase activity and inhibition” (Scientific Reports, 2018).
